Publication PMC5318275 (Chemical research in toxicology, 2017)
Read-outs that look alike come from different tables or passages of the source.

What was measured:
hMT1 = settings: read-out: Ki hMT1; competition for 2-[125I]-iodomelatonin (300 pM); cited from earlier work
hMT2 = settings: read-out: Ki hMT2; competition for 2-[125I]-iodomelatonin (300 pM); cited from earlier work
hMT2 melatonin receptor [1] = molecular target: T1, hMT2 melatonin receptor (Homo sapiens, UniProt P49286); assay: biochemical; type: binding; settings: for fold higher affinity for hMT2 than for hMT1: competition with 2-[125I]-iodomelatonin binding; for ratio MT1/MT2 (KiMT1/KiMT2): fold difference in affinity between hMT1 and hMT2
T1 sequence (P49286 1-362): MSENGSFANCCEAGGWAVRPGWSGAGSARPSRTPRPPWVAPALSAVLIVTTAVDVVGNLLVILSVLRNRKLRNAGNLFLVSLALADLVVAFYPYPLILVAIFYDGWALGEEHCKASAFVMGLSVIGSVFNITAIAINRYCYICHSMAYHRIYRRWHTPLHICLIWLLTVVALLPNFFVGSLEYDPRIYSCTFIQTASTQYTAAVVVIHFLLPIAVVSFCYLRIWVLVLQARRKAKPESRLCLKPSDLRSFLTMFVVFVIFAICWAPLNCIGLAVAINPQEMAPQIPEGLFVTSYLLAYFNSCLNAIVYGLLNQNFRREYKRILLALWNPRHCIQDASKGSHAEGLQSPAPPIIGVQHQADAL

hMT2 melatonin receptor [2] = molecular target: T1, hMT2 melatonin receptor; assay: biochemical; type: binding; settings: for ratio KiGTP/KiControl, human MT2: 100 μM GTP vs control; for ratio KiGTP/KiControl, human MT2 / Ki: mean ± SEM; for apparent intrinsic efficacy at hMT2 from GTP shift: classified by KiGTP/KiControl: agonists >1, antagonists =1, inverse agonists <1; for Ki: human MT2 Ki value, 25 °C, 1 h
hMT1 melatonin receptor [3] = molecular target: T2, hMT1 melatonin receptor (Homo sapiens, UniProt P48039); assay: biochemical; type: binding
hMT1 melatonin receptor [4] = molecular target: T2, hMT1 melatonin receptor; assay: biochemical; type: binding; settings: for ratio KiGTP/KiControl, human MT1: 100 μM GTP vs control; for ratio KiGTP/KiControl, human MT1 / Ki: mean ± SEM; for apparent intrinsic efficacy at hMT1 from GTP shift: classified by KiGTP/KiControl: agonists >1, antagonists =1, inverse agonists <1; for Ki: human MT1 Ki value, 25 °C, 1 h
serotonin levels = settings: single oral dose 60 mg/kg; cited from earlier work

T2 sequence (P48039 whole entry): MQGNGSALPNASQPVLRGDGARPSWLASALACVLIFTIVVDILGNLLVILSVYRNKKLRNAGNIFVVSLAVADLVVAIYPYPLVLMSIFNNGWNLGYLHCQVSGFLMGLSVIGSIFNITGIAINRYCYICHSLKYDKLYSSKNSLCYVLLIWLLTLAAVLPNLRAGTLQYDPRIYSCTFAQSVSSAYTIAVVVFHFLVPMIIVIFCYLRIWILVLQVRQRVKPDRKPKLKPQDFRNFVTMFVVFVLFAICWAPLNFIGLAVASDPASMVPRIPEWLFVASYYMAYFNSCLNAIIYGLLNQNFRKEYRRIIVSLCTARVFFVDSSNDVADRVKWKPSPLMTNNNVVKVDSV

SMILES	Ki (hMT1) [µM]	Ki (hMT2) [µM]	Ki (hMT2 melatonin receptor [1]) [µM]	fold higher affinity for hMT2 than for hMT1 (hMT2 melatonin receptor [1]) [fold]	ratio MT1/MT2 (KiMT1/KiMT2) (hMT2 melatonin receptor [1])	ratio KiGTP/KiControl, human MT2 (hMT2 melatonin receptor [2])	apparent intrinsic efficacy at hMT2 from GTP shift (hMT2 melatonin receptor [2])	Ki (hMT2 melatonin receptor [2]; GTP, presence of 100 μM GTP) [µM]	Ki (hMT2 melatonin receptor [2]; control, absence of GTP) [µM]	Ki (hMT1 melatonin receptor [3]) [µM]	ratio KiGTP/KiControl, human MT1 (hMT1 melatonin receptor [4])	apparent intrinsic efficacy at hMT1 from GTP shift (hMT1 melatonin receptor [4])	Ki (hMT1 melatonin receptor [4]; GTP, presence of 100 μM GTP) [µM]	Ki (hMT1 melatonin receptor [4]; control, absence of GTP) [µM]	Ki (hMT1 melatonin receptor [3]; affinity at hMT1, text of discussion, equals the Table 2 control value) [µM]	levels of serotonin (serotonin levels)
CC(=O)NCCc1c(Cc2ccccc2)[nH]c2ccccc12 [luzindole]	0.179	0.0073	–	–	–	–	–	–	–	–	–	–	–	–	–	–
CNC(=O)Oc1cccc2c1OC(C)(C)C2 [carbofuran, 2,3-dihydro-2,2-dimethyl-7-benzofuranyl methylcarbamate]	–	–	1.68 ± 0.24	35	34.8	10.8 ± 4.2	agonist efficacy	12.1 ± 2.63	1.67 ± 0.39	58.5 ± 8.25	0.59 ± 0.24	antagonist/inverse agonist	29.9 ± 8.6	63.5 ± 12.5	–	–
CNC(=O)Oc1cccc2ccccc12 [carbaryl, 1-naphthyl methylcarbamate]	–	–	0.07 ± 0.01	33	32.4	4.82 ± 0.82	agonist	0.31 ± 0.03	0.07 ± 0.005	–	0.65 ± 0.16	antagonist/inverse agonist	1.21 ± 0.11	2.33 ± 0.53	2.33	increased
CCC(=O)NC1Cc2ccccc2C(c2ccccc2)C1 (centres unmarked) [4P-PDOT]	0.658	0.00041	–	–	–	–	–	–	–	–	–	–	–	–	–	–
